# Laboratory results: US20240280562A1, “METHOD FOR QUANTIFYING ODORS, CELLS USED IN SAME, AND METHOD FOR PRODUCING SAID CELLS” (KOMI HAKKO CORPORATION, priority 2017, published 2024)
# How the values were obtained:
# [1] = molecular target: T1, Olfr166 (Mus musculus, UniProt Q8VGX2); settings: HG28-24 cells, stimulation by pyridine
# Procedure: (§1) The olfactory epithelium-derived cell solution obtained above was subjected to centrifugation at 1000 rpm for 5 minutes (2420, KUBOTA Co.) to remove the supernatant, and to this, a Ca^2+ ringer solution containing […] Fluo4-AM (F312, Dojindo) and 0.02 wt % Pluronic F-127 (P6867, Molecular Probes) was then added. A polystyrene slide having about 400000 nano chambers with a diameter of […] for As OneCell Picking system (AS ONE Corporation; automated single-cell analysis and isolation system [equipped with temperature control system, time lapse system, perfusion system]; Yoshimoto, et al., Scientific Reports Vol. 3 (2013) 1191; hereinafter this can be referred to as “OneCell system” in the description) was immersed in 2% PVP (polyvinyl pyrrolidone (NACALAI TESQUE, INC.)) and then put on a perfusion jig for the OneCell system. […]
# (§2) Subsequently, the slide was put on a prescribed site of the OneCell system and maintained with a Ca^2+ ringer solution having been circulated, and fluorescent images derived from Fluo-4 of each olfactory epithelium-derived cell included in the nano chambers were observed through 4×objective lens, and changes in fluorescence intensity over time were recorded. […]
# [2] = molecular target: T1, Olfr166; experiment: cell-based
# From the text: (§3) In order to verify whether or not the mouse-derived olfactory receptors obtained in the above 3) and 4) surely respond to odor molecules used for screening, a system in which adenylate cyclase is activated from a olfactory receptor through heterotrimeric G protein including Gaolf to accumulate cAMP from ATP, and luciferase expression is induced in an intracellular cAMP concentration-dependent manner, was reconstructed in HEK 293 cells.
# (§4) Specifically, each of mouse-derived olfactory receptor genes, Olfr168, Olfr205, Olfr45 and Olfr166, and DNA coding for the amino acid sequence shown in SEQ ID NO:9 were fused. The obtained genes were incorporated into pME18S plasmid incorporated into downstream of SRa promoter, a plasmid having a base sequence coding for the amino acid sequence shown in SEQ ID NO:2 to allow Gaolf to be expressed, a plasmid to allow Receptor-transporting protein 1S (RTP1S) having a base sequence shown in SEQ ID NO:6, which is a factor to raise the efficiency of presentation of olfactory receptors from the Golgi body to the cell surface, to be expressed, and a cAMP-responsive luciferase expressing plasmid pGlosensor-22 (Promega Corporation). The plasmids are introduced into HEK 293T cells by Lipofectamine 2000 (Life Technologies) to cause transient expression.
# [3] = molecular target: Olfr45 (Mus musculus, UniProt A0JLW4); experiment: cell-based
# Procedure: as §1, §2
# [4] = molecular target: Olfr1258 (Mus musculus, UniProt Q8VGN6); experiment: Reconstruction experiment: cAMP-responsive luciferase in HEK293 cells expressing Olfr1258; type: cell-based
# [5] = molecular target: T2, Olfr205 (Mus musculus, UniProt B9EKD6); experiment: Reconstruction experiment: cAMP-responsive luciferase in HEK293 cells expressing Olfr205; type: cell-based
# T2 sequence (B9EKD6 1-305): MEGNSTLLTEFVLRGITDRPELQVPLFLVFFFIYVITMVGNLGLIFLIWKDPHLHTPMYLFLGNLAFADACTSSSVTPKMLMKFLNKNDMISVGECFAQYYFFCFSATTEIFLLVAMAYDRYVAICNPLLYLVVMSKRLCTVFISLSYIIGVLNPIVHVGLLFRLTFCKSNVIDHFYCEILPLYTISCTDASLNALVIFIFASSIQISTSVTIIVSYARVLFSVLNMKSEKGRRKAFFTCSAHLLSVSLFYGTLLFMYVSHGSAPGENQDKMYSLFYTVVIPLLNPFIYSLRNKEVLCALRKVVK
# From the text: as §3, §4
# [6] = molecular target: T2, Olfr205; experiment: Fluo-4 Ca2+ uptake in isolated olfactory sensory neuron HI25-18 (calculation method (A)); type: cell-based; settings: HI25-18 cells
# Procedure: (§5) The olfactory epithelium-derived cells were stimulated as follows.
# (§6) As a result, Olfr168 (mOR271-1; GenBank accession number: AY317252) and Olfr205 (mOR182-11P; GenBank accession number: BC150839) were identified in HI28-03 and HI25-18 respectively.
# (§7) Specifically, the above Ca^2+ ringer solution was refluxed to the slide glass which had been put on the OneCell device and had stored olfactory epithelium-derived cells, and a Ca^2+ ringer solution containing 3 mM 2-pentanone described below was added thereto for 20 seconds every two minutes. The degree of increase in transient fluorescence intensity derived from Fluo-4 in each olfactory sensory neuron was repeatedly measured 5 times (FIG. 8).
# [7] = molecular target: T3, Olfr168 (Mus musculus, UniProt A0PK36); experiment: Reconstruction experiment: cAMP-responsive luciferase in HEK 293T cells expressing Olfr168; type: cell-based; settings: HEK 293T cells transiently expressing Olfr168, Gaolf, RTP1S, pGlosensor-22
# T3 sequence (A0PK36 1-312): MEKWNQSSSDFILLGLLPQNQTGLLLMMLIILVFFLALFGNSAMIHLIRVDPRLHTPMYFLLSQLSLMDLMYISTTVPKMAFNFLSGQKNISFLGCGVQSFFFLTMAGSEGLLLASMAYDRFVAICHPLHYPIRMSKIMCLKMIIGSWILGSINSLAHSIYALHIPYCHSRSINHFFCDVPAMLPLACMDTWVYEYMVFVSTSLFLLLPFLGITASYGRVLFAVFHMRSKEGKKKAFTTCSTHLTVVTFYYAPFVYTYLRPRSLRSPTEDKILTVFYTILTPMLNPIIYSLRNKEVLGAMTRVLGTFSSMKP
# From the text: as §3, §4
# [8] = test system: olfactory sensory neurons; experiment: OneCell system Fluo-4 screening of olfactory epithelium-derived cells stimulated by an odor molecule; type: cell-based, mouse; settings: 2-pentanone (30 mM) for 10 seconds and (3 mM) for 10 seconds; of approximately 10000 olfactory sensory neurons
# Procedure: C57/BL6J (male) aged 3 to 5 weeks were purchased from Japan SLC, Inc. The mice were beheaded after intravenous anesthesia with […] of Urethane solution (300 mg/mL; U2500, Sigma-Aldrich) and olfactory epithelium was extracted on ice. […] An equal amount of Ca^2+ ringer solution containing 0.1 mg/mL DNase I, 0.1 mg/mL BSA, and […] leupeptin (0.025 mg/mL trypsin inhibitor in the case of trypsin) was added thereto to stop the enzyme reaction, and the obtained solution then allowed to pass through a cell strainer twice to remove large tissue fragments.
# The sample after removal was subjected to centrifugation treatment, and this was washed once to obtain an olfactory epithelium-derived cell solution.
# as §5
# The olfactory epithelium-derived cells were stimulated by an odor molecule, 2-pentanone (30 mM) for 10 seconds and 2-pentanone (3 mM) for 10 seconds under the above conditions, and olfactory sensory neurons included in olfactory epithelium-derived cells were then identified by a high K^+ ringer solution. As a result, approximately 100 of approximately 10000 olfactory sensory neurons reacted with 2-pentanone. […]
# [9] = molecular target: T3, Olfr168; experiment: Fluo-4 Ca2+ uptake in isolated olfactory sensory neuron HI28-03 (calculation method (A)); type: cell-based; settings: HI28-03 cells
# Procedure: as §5, §6, §7
# [10] = test system: human-derived olfactory receptor; experiment: Human olfactory receptor-expressing cell array (404 sites, HEK293-C1/2 strain) on OneCell system; type: cell-based; settings: concentration of 10 mM
# From the text: In the substrate used, hydrophilicity is increased by plasma treatment of the surface of a slide glass (Matsunami Glass Ind., Ltd.) by a plasma modifier (PM100, Yamato Scientific Co., Ltd.) It should be noted that a machine used for dot printing is a LaboJet-500 manufactured by MicroJet. […] When the array is left to stand on specific culture conditions and observed after 2 days, it is expected that added HEK293-C1/2 strain is proliferated on the sites on which the plasmid has been immobilized to form colonies. After that, the substrate having formed colonies thereon is loaded on the above OneCell system in the method shown in 2).
# [11] = 3 mM 2-pentanone for 20 seconds every two minutes, measured 5 times
# [12] = stimulation by 2-pentanone, experiment independently carried out 5 times, read-out: relative value of increased Fluo-4 fluorescence intensity (high K+ ringer depolarization considered 100%)
# T1 sequence (Q8VGX2 1-312): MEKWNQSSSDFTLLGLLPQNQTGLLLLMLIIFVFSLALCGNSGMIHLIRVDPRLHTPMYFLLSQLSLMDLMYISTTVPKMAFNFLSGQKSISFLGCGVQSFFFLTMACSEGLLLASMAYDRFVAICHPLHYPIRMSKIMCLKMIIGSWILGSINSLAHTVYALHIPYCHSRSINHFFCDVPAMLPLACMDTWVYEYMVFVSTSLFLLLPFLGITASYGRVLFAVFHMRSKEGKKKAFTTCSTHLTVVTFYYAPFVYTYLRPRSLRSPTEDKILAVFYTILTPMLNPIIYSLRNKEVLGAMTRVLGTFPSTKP
# Olfr45, sequence (A0JLW4 1-311): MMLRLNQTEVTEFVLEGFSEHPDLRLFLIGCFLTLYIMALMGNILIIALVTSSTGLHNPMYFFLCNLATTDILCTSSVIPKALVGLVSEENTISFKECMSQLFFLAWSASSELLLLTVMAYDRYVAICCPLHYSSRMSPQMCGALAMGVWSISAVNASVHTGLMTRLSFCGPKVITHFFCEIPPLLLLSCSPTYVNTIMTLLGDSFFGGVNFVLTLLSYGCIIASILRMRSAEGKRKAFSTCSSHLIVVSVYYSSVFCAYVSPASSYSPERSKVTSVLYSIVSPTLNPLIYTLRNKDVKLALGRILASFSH
# Olfr1258, sequence (Q8VGN6 1-311): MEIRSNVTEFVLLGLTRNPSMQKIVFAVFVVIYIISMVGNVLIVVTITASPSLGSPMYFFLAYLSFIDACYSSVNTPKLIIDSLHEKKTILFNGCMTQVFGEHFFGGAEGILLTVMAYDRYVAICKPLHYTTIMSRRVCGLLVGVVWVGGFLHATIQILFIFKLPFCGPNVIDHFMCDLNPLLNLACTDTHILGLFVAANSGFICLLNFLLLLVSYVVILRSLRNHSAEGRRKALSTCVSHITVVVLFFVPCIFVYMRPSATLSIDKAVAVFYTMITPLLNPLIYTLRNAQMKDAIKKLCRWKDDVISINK
smiles,measurement,setting,value
c1ccncc1 [pyridine],increased amount of fluorescence intensity derived from Fluo-4,[1],153±47
same,relative value of increased Fluo-4 fluorescence intensity (high K+ ringer depolarization considered 100%),[1]; experiment independently carried out 5 times,132±5%
same,EC50,[2],~5 mM
same,increased amount of fluorescence intensity derived from Fluo-4,"[3]; IG04-13 cells, stimulation by pyridine",195±70
same,Emax,[3]; read-out: relative value of increased Fluo-4 fluorescence intensity (high K+ ringer depolarization considered 100%),120 ± 6%
CCC(C)=O [2-butanone],EC50,[4],~1.5 mM
CCCC(C)=O [2-pentanone],EC50,[5],~4 mM
same,increase in transient fluorescence intensity derived from Fluo-4,[6]; [11],38±10
same,Emax,[6]; [12],67 ± 4%
same,EC50,[7],2.1 ± 0.6 mM
same,number of olfactory sensory neurons that reacted with the odor molecule,[8],approximately 100
same,increase in transient fluorescence intensity derived from Fluo-4,[9]; [11],46±12
same,Emax,[9]; [12],74 ± 3%
COc1cc(C=O)ccc1O [vanillin],fluorescence intensity response of cells to the odor molecule,[10],increase in fluorescence intensity was observed in some cells
